The source of these data is patent US20170050961A1, “IMIDAZO[1,2-A]PYRIDINES AS SOLUBLE GUANYLATE CYCLASE STIMULATORS FOR THE TREATMENT OF CARDIOVASCULAR DISEASES” (BAYER PHARMA AKTIENGESELLSCHAFT, priority 2014, published 2017).

The assay has as its target T1, recombinant guanylate cyclase reporter cell line (Rattus norvegicus, UniProt P19686+P20595).
T1 construct: expressed in transfected cells
T1 sequence (P19686 1-690): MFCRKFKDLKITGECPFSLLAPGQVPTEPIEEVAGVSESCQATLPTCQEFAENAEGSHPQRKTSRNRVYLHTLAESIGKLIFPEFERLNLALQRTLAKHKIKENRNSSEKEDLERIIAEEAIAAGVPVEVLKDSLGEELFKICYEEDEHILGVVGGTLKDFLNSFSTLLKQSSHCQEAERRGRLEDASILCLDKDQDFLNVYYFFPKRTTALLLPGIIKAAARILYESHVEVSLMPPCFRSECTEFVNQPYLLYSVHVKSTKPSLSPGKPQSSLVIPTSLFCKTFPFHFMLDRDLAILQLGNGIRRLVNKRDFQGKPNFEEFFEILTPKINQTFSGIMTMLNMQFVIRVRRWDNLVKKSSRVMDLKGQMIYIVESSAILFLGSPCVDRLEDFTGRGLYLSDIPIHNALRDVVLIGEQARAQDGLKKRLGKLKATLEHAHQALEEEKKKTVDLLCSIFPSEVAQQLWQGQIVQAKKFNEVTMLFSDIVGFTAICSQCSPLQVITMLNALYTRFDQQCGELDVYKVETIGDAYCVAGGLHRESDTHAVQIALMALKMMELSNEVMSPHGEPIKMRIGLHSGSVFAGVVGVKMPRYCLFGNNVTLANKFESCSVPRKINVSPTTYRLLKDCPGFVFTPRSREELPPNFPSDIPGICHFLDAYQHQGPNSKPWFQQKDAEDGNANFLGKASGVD
T1 sequence (P20595 1-619): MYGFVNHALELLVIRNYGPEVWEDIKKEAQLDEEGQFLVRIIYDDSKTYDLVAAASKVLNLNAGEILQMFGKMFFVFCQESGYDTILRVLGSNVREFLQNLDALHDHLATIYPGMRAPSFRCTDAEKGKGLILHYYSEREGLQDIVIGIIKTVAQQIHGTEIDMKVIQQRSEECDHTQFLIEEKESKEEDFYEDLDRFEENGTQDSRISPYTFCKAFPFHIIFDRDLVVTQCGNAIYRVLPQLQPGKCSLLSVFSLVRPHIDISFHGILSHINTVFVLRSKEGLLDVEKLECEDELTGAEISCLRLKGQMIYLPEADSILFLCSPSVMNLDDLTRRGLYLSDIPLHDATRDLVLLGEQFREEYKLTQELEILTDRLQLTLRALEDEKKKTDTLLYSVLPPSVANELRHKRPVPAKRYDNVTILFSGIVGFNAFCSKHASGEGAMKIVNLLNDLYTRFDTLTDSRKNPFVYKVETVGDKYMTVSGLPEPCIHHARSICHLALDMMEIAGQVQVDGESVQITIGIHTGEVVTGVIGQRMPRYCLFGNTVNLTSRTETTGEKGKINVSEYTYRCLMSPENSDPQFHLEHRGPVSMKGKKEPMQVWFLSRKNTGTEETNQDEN
Briefly: Effect on a recombinant guanylate cyclase reporter cell line. Format: cell-based. To be noted: MEC=minimum effective concentration; in some cases as mean values for individual determinations. How it is done: B-2. Effect on a Recombinant Guanylate Cyclase Reporter Cell Line
The cellular activity of the compounds of the invention is determined using a recombinant guanylate cyclase reporter cell line, as described in F. Wunder et al., Anal Biochem. 339, 104-112 (2005).
Representative MEC values (MEC=minimum effective concentration) for the compounds of the invention are shown in the table below (in some cases as mean values for individual determinations): […]
On to `CCC(C)(N)CNC(=O)c1c(C)nc2c(OCc3c(F)cccc3F)cc(C3CC3)cn12.Cl` (racemic) [Example 2, rac-N-(2-Amino-2-methylbutyl)-6-cyclopropyl-8-[(2,6-difluorobenzyl)oxy]-2-methylimidazo[1,2-a]pyridine-3-carboxamide hydrochloride], for which the MEC is 1.0 µM.
With `COc1nc2c(OCc3c(F)cccc3F)cc(C)cn2c1C(=O)NCC(C)(N)CCC(F)(F)F` (single isomer, unassigned; enantiomer b) [Example 27, ent-N-(2-Amino-5,5,5-trifluoro-2-methylpentyl)-8-[(2,6-difluorobenzyl)oxy]-2-methoxy-6-methylimidazo[1,2-a]pyridine-3-carboxamide (enantiomer B)] the figure was 3.0 µM; with `Cc1nc2c(OCc3ncccc3F)cccn2c1C(=O)NCC(C)(N)CCC(F)(F)F` (single isomer, unassigned; enantiomer b) [Example 11, ent-N-(2-Amino-5,5,5-trifluoro-2-methylpentyl)-8-[(3-fluoropyridin-2-yl)methoxy]-2-methylimidazo[1,2-a]pyridine-3-carboxamide (enantiomer B)], 1.0 µM; with `Cc1cc(OCc2ncccc2F)c2nc(C)c(C(=O)NCC(C)(N)CCC(F)(F)F)n2c1` (single isomer, unassigned; enantiomer b) [Example 9, ent-N-(2-Amino-5,5,5-trifluoro-2-methylpentyl)-8-[(3-fluoropyridin-2-yl)methoxy]-2,6-dimethylimidazo[1,2-a]pyridine-3-carboxamide (enantiomer B)], 0.3 µM.
For `CCC(C)(N)CNC(=O)c1c(C)nc2c(OCc3c(F)cccc3F)cc(-n3cccn3)cn12.Cl` (racemic) [Example 3, rac-N-(2-Amino-2-methylbutyl)-8-[(2,6-difluorobenzyl)oxy]-2-methyl-6-(1H-pyrazol-1-yl)imidazo[1,2-a]pyridine-3-carboxamide hydrochloride] the value was 3.0 µM; for `CCC(C)(N)CNC(=O)c1c(C)nc2c(OCc3c(F)cccc3F)cc(-c3cccnc3)cn12` (racemic) [Example 1, rac-N-(2-Amino-2-methylbutyl)-8-[(2,6-difluorobenzyl)oxy]-2-methyl-6-(pyridin-3-yl)imidazo[1,2-a]pyridine-3-carboxamide], 10 µM; for `CCC(C)(N)CNC(=O)c1c(C)nc2c(OCc3c(F)cccc3F)cc(COC)cn12.Cl` (racemic) [Example 4, rac-N-(2-Amino-2-methylbutyl)-8-[(2,6-difluorobenzyl)oxy]-6-(methoxymethyl)-2-methylimidazo[1,2-a]pyridine-3-carboxamide hydrochloride], 3.0 µM.
For `CCC(C)(N)CNC(=O)c1c(OC)nc2c(OCc3c(F)cccc3F)cc(C)cn12` (single isomer, unassigned; enantiomer b) [Example 26, ent-N-(2-Amino-2-methylbutyl)-8-[(2,6-difluorobenzyl)oxy]-2-methoxy-6-methylimidazo[1,2-a]pyridine-3-carboxamide (enantiomer B)] the value was 2.0 µM.
